Tested on: OVCAR-5 complex spheroids with HUVEC/MSC, viability, % test/control
Test: Anticancer human tumor OVCAR-5 cell line growth inhibition [AhR];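 also: spheroids exposed to compounds for 7 days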;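 as to viability, T/C: 100% = DMSO vehicle control wells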
Conditions: for IC50: curve of first compound; for viability, T/C: stronger effect = lower value
Summary of the method: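 Complex tumor spheroids co-cultured with HUVEC and human MSC stroma; AhR antagonists tested in combination with standard-of-care and investigational agents. Top concentration at or near clinical Cmax (else 10 microM), half-log dilutions; growth expressed as percent test/control.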

[1] = second compound 0.1 µM, first compound 0.0316 µM
[2] = second compound 0.1 µM, first compound 0.1 µM
[3] = second compound 0.316 µM, first compound 0.0316 µM
[4] = second compound 0.316 µM, first compound 0.1 µM
[5] = second compound 1 µM, first compound 0.0316 µM
[6] = second compound 1 µM, first compound 0.1 µM
[7] = second compound 3.16 µM, first compound 0.0316 µM
[8] = second compound 3.16 µM, first compound 0.1 µM
[9] = second compound 10 µM, first compound 0.0316 µM
[10] = second compound 10 µM, first compound 0.1 µM
[11] = second compound 0.1 µM, first compound 0.316 µM
[12] = second compound 0.1 µM, first compound 1 µM
[13] = second compound 0.1 µM, first compound 3.16 µM
[14] = second compound 0.1 µM, first compound 10 µM
[15] = second compound 0.316 µM, first compound 0.316 µM
[16] = second compound 0.316 µM, first compound 1 µM
[17] = second compound 0.316 µM, first compound 3.16 µM
[18] = second compound 0.316 µM, first compound 10 µM
[19] = second compound 1 µM, first compound 0.316 µM
[20] = second compound 1 µM, first compound 1 µM
[21] = second compound 1 µM, first compound 3.16 µM
[22] = second compound 1 µM, first compound 10 µM
[23] = second compound 3.16 µM, first compound 0.316 µM
[24] = second compound 3.16 µM, first compound 1 µM
[25] = second compound 3.16 µM, first compound 3.16 µM
[26] = second compound 3.16 µM, first compound 10 µM
[27] = second compound 10 µM, first compound 0.316 µM
[28] = second compound 10 µM, first compound 1 µM
[29] = second compound 10 µM, first compound 3.16 µM
[30] = second compound 10 µM, first compound 10 µM

Work on `CC[C@@]1(O)C(=O)OCc2c1cc1n(c2=O)Cc2cc3c(CN(C)C)c(O)ccc3nc2-1` + Cc1ccccc1N=Nc1ccc(NC(=O)c2ccnn2C)c(C)c1 yielded an IC50 (second compound 0.1 µM) of 22.9 nM, an IC50 (second compound 0.316 µM) of 24.3 nM and an IC50 (second compound 1 µM) of 25.3 nM. For the same compound, the IC50 (second compound 3.16 µM) was 27.5 nM, the IC50 (second compound 10 µM) was 28.2 nM and the viability, T/C (second compound 0.1 µM, first compound 0.000316 µM) was 103%. It also gave a viability, T/C (second compound 0.1 µM, first compound 0.001 µM) of 102%, a viability, T/C (second compound 0.1 µM, first compound 0.00316 µM) of 94% and a viability, T/C (second compound 0.1 µM, first compound 0.01 µM) of 79.2%. For the same compound, the viability, T/C [1] was 34.7%, the viability, T/C [2] was 42.4% and the viability, T/C (second compound 0.316 µM, first compound 0.000316 µM) was 105%. It also gave a viability, T/C (second compound 0.316 µM, first compound 0.001 µM) of 103%, a viability, T/C (second compound 0.316 µM, first compound 0.00316 µM) of 96% and a viability, T/C (second compound 0.316 µM, first compound 0.01 µM) of 84.6%. For the same compound, the viability, T/C [3] was 36.5%, the viability, T/C [4] was 42.7% and the viability, T/C (second compound 1 µM, first compound 0.000316 µM) was 112%. The viability, T/C (second compound 1 µM, first compound 0.001 µM) was 108%, the viability, T/C (second compound 1 µM, first compound 0.00316 µM) was 104% and the viability, T/C (second compound 1 µM, first compound 0.01 µM) was 89.3%. The viability, T/C [5] was 38.7%, the viability, T/C [6] was 42.4% and the viability, T/C (second compound 3.16 µM, first compound 0.000316 µM) was 113%. It also gave a viability, T/C (second compound 3.16 µM, first compound 0.001 µM) of 110%, a viability, T/C (second compound 3.16 µM, first compound 0.00316 µM) of 108% and a viability, T/C (second compound 3.16 µM, first compound 0.01 µM) of 92%. For the same compound, the viability, T/C [7] was 41%, the viability, T/C [8] was 47.4% and the viability, T/C (second compound 10 µM, first compound 0.000316 µM) was 100%. It also gave a viability, T/C (second compound 10 µM, first compound 0.001 µM) of 104%, a viability, T/C (second compound 10 µM, first compound 0.00316 µM) of 101% and a viability, T/C (second compound 10 µM, first compound 0.01 µM) of 89%. It also gave a viability, T/C [9] of 40.9% and a viability, T/C [10] of 50.4%.

`CCc1c2c(nc3ccc(O)cc13)-c1cc3c(c(=O)n1C2)COC(=O)[C@]3(O)CC` + Cc1ccccc1N=Nc1ccc(NC(=O)c2ccnn2C)c(C)c1 gave an IC50 (second compound 0.1 µM) of 6.95 nM, an IC50 (second compound 0.316 µM) of 8.2 nM and an IC50 (second compound 1 µM) of 9.43 nM. For the same compound, the IC50 (second compound 3.16 µM) was 9.46 nM, the IC50 (second compound 10 µM) was 10.5 nM and the viability, T/C (second compound 0.1 µM, first compound 0.000949 µM) was 85.7%. It also gave a viability, T/C (second compound 0.1 µM, first compound 0.003 µM) of 64.3%, a viability, T/C (second compound 0.1 µM, first compound 0.00949 µM) of 37.1% and a viability, T/C (second compound 0.1 µM, first compound 0.03 µM) of 36.9%. The viability, T/C (second compound 0.1 µM, first compound 0.0949 µM) was 22.5%, the viability, T/C (second compound 0.1 µM, first compound 0.3 µM) was 7.67% and the viability, T/C (second compound 0.316 µM, first compound 0.000949 µM) was 87.4%. For the same compound, the viability, T/C (second compound 0.316 µM, first compound 0.003 µM) was 70.3%, the viability, T/C (second compound 0.316 µM, first compound 0.00949 µM) was 39.2% and the viability, T/C (second compound 0.316 µM, first compound 0.03 µM) was 37%. The viability, T/C (second compound 0.316 µM, first compound 0.0949 µM) was 18.7%, the viability, T/C (second compound 0.316 µM, first compound 0.3 µM) was 6.8% and the viability, T/C (second compound 1 µM, first compound 0.000949 µM) was 91.3%. It also gave a viability, T/C (second compound 1 µM, first compound 0.003 µM) of 73.4%, a viability, T/C (second compound 1 µM, first compound 0.00949 µM) of 40.8% and a viability, T/C (second compound 1 µM, first compound 0.03 µM) of 38.3%. For the same compound, the viability, T/C (second compound 1 µM, first compound 0.0949 µM) was 20.9%, the viability, T/C (second compound 1 µM, first compound 0.3 µM) was 7.02% and the viability, T/C (second compound 3.16 µM, first compound 0.000949 µM) was 95.9%. For the same compound, the viability, T/C (second compound 3.16 µM, first compound 0.003 µM) was 70.7%, the viability, T/C (second compound 3.16 µM, first compound 0.00949 µM) was 45.4% and the viability, T/C (second compound 3.16 µM, first compound 0.03 µM) was 38.1%. The viability, T/C (second compound 3.16 µM, first compound 0.0949 µM) was 18.4%, the viability, T/C (second compound 3.16 µM, first compound 0.3 µM) was 7.44% and the viability, T/C (second compound 10 µM, first compound 0.000949 µM) was 89.5%. It also gave a viability, T/C (second compound 10 µM, first compound 0.003 µM) of 65.9%, a viability, T/C (second compound 10 µM, first compound 0.00949 µM) of 45.9% and a viability, T/C (second compound 10 µM, first compound 0.03 µM) of 42.1%. For the same compound, the viability, T/C (second compound 10 µM, first compound 0.0949 µM) was 21.5% and the viability, T/C (second compound 10 µM, first compound 0.3 µM) was 8.22%.

`Nc1ccccc1NC(=O)c1ccc(CNC(=O)OCc2cccnc2)cc1` + Cc1ccccc1N=Nc1ccc(NC(=O)c2ccnn2C)c(C)c1 showed an IC50 (second compound 0.1 µM) of 913 nM, an IC50 (second compound 0.316 µM) of 824 nM and an IC50 (second compound 1 µM) of 856 nM. For the same compound, the IC50 (second compound 3.16 µM) was 827 nM, the IC50 (second compound 10 µM) was 1110 nM and the viability, T/C [1] was 95.1%. The viability, T/C [2] was 89.9%, the viability, T/C [11] was 74.8% and the viability, T/C [12] was 48.6%. The viability, T/C [13] was 20.3%, the viability, T/C [14] was 7.82% and the viability, T/C [3] was 98.8%. The viability, T/C [4] was 93.6%, the viability, T/C [15] was 76.6% and the viability, T/C [16] was 44.4%. The viability, T/C [17] was 19.3%, the viability, T/C [18] was 8.39% and the viability, T/C [5] was 102%. For the same compound, the viability, T/C [6] was 94.4%, the viability, T/C [19] was 83.9% and the viability, T/C [20] was 43.8%. For the same compound, the viability, T/C [21] was 18.7%, the viability, T/C [22] was 9.13% and the viability, T/C [7] was 103%. The viability, T/C [8] was 99.9%, the viability, T/C [23] was 79.1% and the viability, T/C [24] was 44.1%. The viability, T/C [25] was 19%, the viability, T/C [26] was 9.43% and the viability, T/C [9] was 91.1%. For the same compound, the viability, T/C [10] was 96.1%, the viability, T/C [27] was 75.4% and the viability, T/C [28] was 56%. It also gave a viability, T/C [29] of 19.9% and a viability, T/C [30] of 9.42%.

In the case of `Nc1ccn(C2OC(CO)C(O)C2(F)F)c(=O)n1` (stereo not given) + Cc1ccccc1N=Nc1ccc(NC(=O)c2ccnn2C)c(C)c1, the IC50 (second compound 0.1 µM) is reported as under 31.6 nM, the IC50 (second compound 0.316 µM) is reported as under 31.6 nM and the IC50 (second compound 1 µM) is reported as under 31.6 nM. It also gave an IC50 (second compound 3.16 µM) of under 31.6 nM, an IC50 (second compound 10 µM) of under 31.6 nM and a viability, T/C [1] of 27.7%. It also gave a viability, T/C [2] of 25.4%, a viability, T/C [11] of 26.3% and a viability, T/C [12] of 27.4%. For the same compound, the viability, T/C [13] was 28.5%, the viability, T/C [14] was 28.1% and the viability, T/C [3] was 27.5%. It also gave a viability, T/C [4] of 25.3%, a viability, T/C [15] of 26.4% and a viability, T/C [16] of 26.9%. The viability, T/C [17] was 29%, the viability, T/C [18] was 29.1% and the viability, T/C [5] was 29.7%. The viability, T/C [6] was 27.1%, the viability, T/C [19] was 26.7% and the viability, T/C [20] was 27.1%. The viability, T/C [21] was 28%, the viability, T/C [22] was 27.9% and the viability, T/C [7] was 28.9%. For the same compound, the viability, T/C [8] was 27.2%, the viability, T/C [23] was 27.1% and the viability, T/C [24] was 28.2%. For the same compound, the viability, T/C [25] was 29.3%, the viability, T/C [26] was 29.2% and the viability, T/C [9] was 31.6%. The viability, T/C [10] was 29.2%, the viability, T/C [27] was 31.9% and the viability, T/C [28] was 31.1%. For the same compound, the viability, T/C [29] was 32.2% and the viability, T/C [30] was 31%.

Work on `O=C(c1cc(Cc2n[nH]c(=O)c3ccccc23)ccc1F)N1CCN(C(=O)C2CC2)CC1` + Cc1ccccc1N=Nc1ccc(NC(=O)c2ccnn2C)c(C)c1 yielded an IC50 (second compound 0.1 µM) of over 10000 nM, an IC50 (second compound 0.316 µM) of over 10000 nM and an IC50 (second compound 1 µM) of over 10000 nM. For the same compound, the IC50 (second compound 3.16 µM) was over 10000 nM, the IC50 (second compound 10 µM) was over 10000 nM and the viability, T/C [1] was 103%. It also gave a viability, T/C [2] of 105%, a viability, T/C [11] of 102% and a viability, T/C [12] of 99.8%. It also gave a viability, T/C [13] of 92.5%, a viability, T/C [14] of 85% and a viability, T/C [3] of 107%. The viability, T/C [4] was 109%, the viability, T/C [15] was 105% and the viability, T/C [16] was 104%. It also gave a viability, T/C [17] of 98.3%, a viability, T/C [18] of 90.6% and a viability, T/C [5] of 111%. The viability, T/C [6] was 114%, the viability, T/C [19] was 115% and the viability, T/C [20] was 109%. The viability, T/C [21] was 101%, the viability, T/C [22] was 94.2% and the viability, T/C [7] was 111%. For the same compound, the viability, T/C [8] was 115%, the viability, T/C [23] was 114% and the viability, T/C [24] was 106%. The viability, T/C [25] was 107%, the viability, T/C [26] was 99.4% and the viability, T/C [9] was 99.3%. The viability, T/C [10] was 110%, the viability, T/C [27] was 103% and the viability, T/C [28] was 106%. For the same compound, the viability, T/C [29] was 96.7% and the viability, T/C [30] was 89.1%.

Reference: PubChem BioAssay AID1919015 (Molecular Pharmacology Branch, DTP, NCI, 2023)
